One test relates to HL-60 cells. Briefly: HL-60 cell differentiation (nitro blue tetrazolium reduction). In kind it is cell-based, Human. The settings on record: for EC50: HL-60 differentiation into monocytes, FIG. 2. How it is done: The study drugs were dissolved in ethanol and the concentrations determined using UV spectrophotometry. Serial dilutions were prepared so that a range of drug concentrations could be tested without changing the final concentration of ethanol (≦0.2%) present in the cell cultures.
Human promyelocytic leukemia (HL60) cells were grown in RPMI-1640 medium containing 10% fetal bovine serum. The cells were incubated at 37° C. in the presence of 5% CO2.
HL60 cells were plated at 1.2×10^5 cells/ml. Eighteen hours after plating, cells in duplicate were treated with drug. Four days later, the cells were harvested and a nitro blue tetrazolium reduction assay was performed (Collins et al., 1979; J. Exp. Med. 149:969-974). The percentage of differentiated cells was determined by counting a total of 200 cells and recording the number that contained intracellular black-blue formazan deposits. Verification of differentiation to monocytic cells was determined by measuring phagocytic activity (data not shown).

For test [1], the system named is 24-hydroxylase (24Ohase) gene promoter. Briefly: In vitro transcription assay, luciferase reporter in ROS 17/2.8 (bone) cells. In kind it is cell-based. As to conditions: ROS 17/2.8 cells, 24Ohase promoter-luciferase; FIG. 3; read-out: EC50, transcriptional activity in bone cells (24-hydroxylase gene). How it is done: Transcription activity was measured in ROS 17/2.8 (bone) cells that were stably transfected with a 24-hydroxylase (24Ohase) gene promoter upstream of a luciferase reporter gene (Arbour et al., 1998). Cells were given a range of doses. Sixteen hours after dosing the cells were harvested and luciferase activities were measured using a luminometer.
RLU=relative luciferase units.
Background: In a reporter assay the amount or activity of a reporter protein is the signal.

Test [2] in a line: Bone calcium mobilization (serum calcium) in vitamin D-deficient rats. It is filed as in vivo, Sprague-Dawley rats. The settings on record: ip. How it is done: (§1) Male, weanling Sprague-Dawley rats were placed on Diet 11 (0.47% Ca) diet+AEK oil for one week followed by Diet 11 (0.02% Ca)+AEK oil for 3 weeks. The rats were then switched to a diet containing 0.47% Ca for one week followed by two weeks on a diet containing 0.02% Ca. Dose administration began during the last week on 0.02% calcium diet. Four consecutive ip doses were given approximately 24 hours apart. Twenty-four hours after the last dose, blood was collected from the severed neck and the concentration of serum calcium determined as a measure of bone calcium mobilization. The first 10 cm of the intestine was also collected for intestinal calcium transport analysis using the everted gut sac method.

Test [3] can be described thus: Intestinal calcium transport, everted gut sac method, vitamin D-deficient rats. In kind it is in vivo, Sprague-Dawley rats. The settings on record: ip, FIGS. 5A and 5B. How it is done:
as §1

Structures are written as SMILES.

`C=C1/C(=C\C=C2/CCC[C@]3(C)[C@@H]([C@H](C)CCCC(C)(C)O)CC[C@@H]23)C[C@@H](O)C[C@@H]1O` [1,25(OH)2D3, 1α,25-dihydroxyvitamin D3, reference compound]: the 50% effective concentration (EC50) with HL-60 cells worked out at 2000 pM; in test [1], 200 pM. For the same compound, the “serum calcium levels (bone calcium mobilization)” value in test [2] (all dosages, rats on 0.02% Ca diet, FIGS. 4A and 4B) is recorded as “increased serum calcium levels at all dosages”. Further, the intestinal calcium transport entry in test [3] (260 pmol/day) was “promotes a significant increase”.

With `C=C1[C@H](O)CC(=C/C=C2\CCC[C@@]3(C)C2CC[C@@H]3[C@@H](C)CCC[C@@H](C)O)C[C@H]1O` (stereo partly drawn) [SR1, 2-methylene-(20S,25R)-19,26-dinor-1α,25-dihydroxyvitamin D3], the results for the EC50 (in the test with HL-60 cells (Homo sapiens); in test [1]) were 100 pM and 10 pM, respectively. Further, in the test on HL-60 cells (versus 1,25(OH)2D3), the “potency on HL-60 cell differentiation relative to 1,25(OH)2D3 (times more potent)” value is recorded as “about 10 times”. Moreover, the “bone calcium mobilization (serum calcium)” value in test [2] (260 pmol/day for 4 consecutive days, rats on 0.02% Ca diet) is given as “did not result in mobilization of bone calcium”; in test [2] (7020 pmol/day, rats on 0.02% Ca diet), “without any substantial effect”. The “potency in mobilizing bone calcium relative to the native hormone (times less potent)” value in test [2] (versus 1,25(OH)2D3, rats) is reported as “approximately 30 times”. For the same compound, the results for the intestinal calcium transport result in test [3] (260 pmol/day) and in test [3] (7020 pmol/day) were “promotes intestinal calcium transport only slightly” and “significant intestinal calcium transport activity was recorded”, respectively.

The term EC50 denotes the concentration at which the effect is half-maximal.

(Values after patent publication US8609643B2, “2-methylene-(20S,25R)-19,26-dinor-vitamin D analogs” (Wisconsin Alumni Research Foundation, priority 2007, dated 2013).)
